From patent US20260062443A1 (ALEXION PHARMACEUTICALS, INC., priority 2022, published 2026)

Target: T1, Human complement C1s enzyme (Homo sapiens, UniProt P09871)
T1 sequence (P09871 438-688 limits assumed): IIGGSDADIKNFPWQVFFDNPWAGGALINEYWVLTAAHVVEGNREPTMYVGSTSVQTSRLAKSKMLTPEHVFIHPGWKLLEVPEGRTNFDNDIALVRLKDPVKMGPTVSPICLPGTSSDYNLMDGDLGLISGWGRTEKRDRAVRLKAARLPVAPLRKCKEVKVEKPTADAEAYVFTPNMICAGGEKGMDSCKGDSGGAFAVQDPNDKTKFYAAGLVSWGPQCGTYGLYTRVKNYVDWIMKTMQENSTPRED
T1 sequence (P09871 16-437 partner limits assumed): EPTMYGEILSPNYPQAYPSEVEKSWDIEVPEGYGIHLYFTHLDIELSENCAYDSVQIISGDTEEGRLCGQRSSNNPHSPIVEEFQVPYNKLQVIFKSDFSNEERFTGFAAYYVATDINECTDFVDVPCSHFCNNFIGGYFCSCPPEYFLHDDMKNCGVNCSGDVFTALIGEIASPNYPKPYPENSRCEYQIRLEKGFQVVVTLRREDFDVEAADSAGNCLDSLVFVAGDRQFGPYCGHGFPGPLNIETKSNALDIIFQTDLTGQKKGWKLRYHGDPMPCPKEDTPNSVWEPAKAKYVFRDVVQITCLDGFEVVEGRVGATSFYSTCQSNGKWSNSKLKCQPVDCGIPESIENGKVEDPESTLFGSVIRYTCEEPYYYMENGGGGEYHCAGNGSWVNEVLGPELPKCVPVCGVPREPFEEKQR
Test: Human C1s enzyme assay
Format: biochemical
Conditions: human complement C1s enzyme 1.16 nM, substrate Z-L-Lys-SBzl 100 μM, 5 min preincubation; read-out: IC50 (Stars), C1s Inhibiting Activity
Procedure, shortened: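 IC50 from nonlinear regression of reaction rates versus compound concentration, with rates taken from A405 recorded at 30 s intervals over 30 min after adding 100 μM Z-L-Lys-SBzl plus 100 μM DTNB. Enzyme was human C1s purified from serum, 1.16 nM, given 5 min compound preincubation at room temperature, pH 7.5 Tris/1 M NaCl.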

IC50 [nM]	SMILES
100 to 1000	C[C@@H](NC(=O)[C@@H]1C[C@@H](S(C)(=O)=O)CN1C(=O)CNC(=O)c1ccc(-c2ccccc2)cc1)c1cc2cnccc2[nH]1 [Compound 82, (2S,4R)-N-((R)-1-(1H-pyrrolo[3,2-c]pyridin-2-yl)ethyl)-1-(([1,1′-biphenyl]-4-carbonyl)glycyl)-4-(methylsulfonyl)pyrrolidine-2-carboxamide]
100 to 1000	COC[C@@]1(F)C[C@@H](C(=O)N[C@H](C)c2cc3cnccc3[nH]2)N(C(=O)CNC(=O)c2ccc(-c3ccccc3)cc2)C1 [Compound 83, (2S,4R)-N-((R)-1-(1H-pyrrolo[3,2-c]pyridin-2-yl)ethyl)-1-(([1,1′-biphenyl]-4-carbonyl)glycyl)-4-fluoro-4-(methoxymethyl)pyrrolidine-2-carboxamide]
> 1000	C[C@@H](NC(=O)[C@@H]1C[C@](F)(CF)CN1C(=O)CNC(=O)c1ccc(-c2ccccc2)cc1)c1cc2cnccc2[nH]1 [Compound 84, (2S,4R)-N-((R)-1-(1H-pyrrolo[3,2-c]pyridin-2-yl)ethyl)-1-(([1,1′-biphenyl]-4-carbonyl)glycyl)-4-fluoro-4-(fluoromethyl)pyrrolidine-2-carboxamide]
> 1000	C[C@@H](NC(=O)[C@@H]1C[C@@H](S(C)(=O)=O)CN1C(=O)CNC(=O)c1ccc(-c2ccc(F)cc2F)cc1)c1cc2cnccc2[nH]1 [Compound 85, (2S,4R)-N-((R)-1-(1H-pyrrolo[3,2-c]pyridin-2-yl)ethyl)-1-((2′,4′-difluoro-[1,1′-biphenyl]-4-carbonyl)glycyl)-4-(methylsulfonyl)pyrrolidine-2-carboxamide]
100 to 1000	C[C@@H](NC(=O)[C@@H]1C[C@](F)(CF)CN1C(=O)CNC(=O)c1ccc2c(c1)-c1ccccc1C2(F)F)c1cc2cnccc2[nH]1 [Compound 86, (2S,4R)-N-((R)-1-(1H-pyrrolo[3,2-c]pyridin-2-yl)ethyl)-1-((9,9-difluoro-9H-fluorene-3-carbonyl)glycyl)-4-fluoro-4-(fluoromethyl)pyrrolidine-2-carboxamide]
100 to 1000	C[C@@H](NC(=O)[C@@H]1C[C@@H](S(C)(=O)=O)CN1C(=O)CNC(=O)c1ccc(Oc2ccc(F)cc2)cc1)c1cc2cnccc2[nH]1 [Compound 87, (2S,4R)-N-((R)-1-(1H-pyrrolo[3,2-c]pyridin-2-yl)ethyl)-1-((4-(4-fluorophenoxy)benzoyl)glycyl)-4-(methylsulfonyl)pyrrolidine-2-carboxamide]
> 1000	C[C@@H](NC(=O)[C@@H]1C[C@](F)(CF)CN1C(=O)CNC(=O)c1ccc(Oc2ccc(F)cc2)cc1)c1cc2cnccc2[nH]1 [Compound 89, (2S,4R)-N-((R)-1-(1H-pyrrolo[3,2-c]pyridin-2-yl)ethyl)-4-fluoro-4-(fluoromethyl)-1-((4-(4-fluorophenoxy)benzoyl)glycyl)pyrrolidine-2-carboxamide]
< 100	C[C@@H](NC(=O)[C@@H]1C[C@@H](OC(F)F)CN1C(=O)CNC(=O)c1ccc(-c2ccc(F)cc2F)cc1)c1cc2cnccc2[nH]1 [Compound 90, (2S,4R)-N-((R)-1-(1H-pyrrolo[3,2-c]pyridin-2-yl)ethyl)-1-((2′,4′′-difluoro-[1,1′-biphenyl]-4-carbonyl)glycyl)-4-(difluoromethoxy)pyrrolidine-2-carboxamide]
< 100	C[C@@H](NC(=O)[C@@H]1C[C@@H](OC(F)F)CN1C(=O)CN1Cc2cc(-c3ccc(F)cc3F)ccc2C1=O)c1cc2cnccc2[nH]1 [Compound 91, (2S,4R)-N-((R)-1-(1H-pyrrolo[3,2-c]pyridin-2-yl)ethyl)-4-(difluoromethoxy)-1-(2-(5-(2,4-difluorophenyl)-1-oxoisoindolin-2-yl)acetyl)pyrrolidine-2-carboxamide]
< 100	O=C(NCC(=O)N1C[C@H](OC(F)F)C[C@H]1C(=O)N[C@H](CO)c1cc2cnccc2[nH]1)c1ccc2c(c1)Oc1ccccc1S2 [Compound 93, (2S,4R)-4-(difluoromethoxy)-N-((S)-2-hydroxy-1-(1H-pyrrolo[3,2-c]pyridin-2-yl)ethyl)-1-((phenoxathiine-3-carbonyl)glycyl)pyrrolidine-2-carboxamide]
> 1000	O=C(NCC(=O)N1CC2(C[C@H]1C(=O)N[C@H](CO)c1cc3cnccc3[nH]1)OCCO2)c1ccc(Oc2ccc(F)cc2)cc1 [Compound 94, (S)-7-((4-(4-fluorophenoxy)benzoyl)glycyl)-N-((S)-2-hydroxy-1-(1H-pyrrolo[3,2-c]pyridin-2-yl)ethyl)-1,4-dioxa-7-azaspiro[4.4]nonane-8-carboxamide]
> 1000	O=C(NCC(=O)N1C[C@@](F)(CF)C[C@H]1C(=O)N[C@H](CO)c1cc2cnccc2[nH]1)c1ccc(Oc2ccc(F)cc2)cc1 [Compound 95, (2S,4R)-4-fluoro-4-(fluoromethyl)-1-((4-(4-fluorophenoxy)benzoyl)glycyl)-N-((S)-2-hydroxy-1-(1H-pyrrolo[3,2-c]pyridin-2-yl)ethyl)pyrrolidine-2-carboxamide]
> 1000	CS(=O)(=O)[C@@H]1C[C@@H](C(=O)N[C@H](CO)c2cc3cnccc3[nH]2)N(C(=O)CNC(=O)c2ccc(Oc3ccc(F)cc3)cc2)C1 [Compound 96, (2S,4R)-1-((4-(4-fluorophenoxy)benzoyl)glycyl)-N-((S)-2-hydroxy-1-(1H-pyrrolo[3,2-c]pyridin-2-yl)ethyl)-4-(methylsulfonyl) pyrrolidine-2-carboxamide]
> 1000	COC[C@@]1(F)C[C@@H](C(=O)N[C@H](CO)c2cc3cnccc3[nH]2)N(C(=O)CNC(=O)c2ccc(Oc3ccc(F)cc3)cc2)C1 [Compound 97, (2S,4R)-4-fluoro-1-((4-(4-fluorophenoxy)benzoyl)glycyl)-N-((S)-2-hydroxy-1-(1H-pyrrolo[3,2-c]pyridin-2-yl)ethyl)-4-(methoxymethyl) pyrrolidine-2-carboxamide]
100 to 1000	O=C(NCC(=O)N1C[C@H](OC(F)F)C[C@H]1C(=O)N[C@H](CO)c1cc2cnccc2[nH]1)c1ccc(Oc2ccc(F)cc2)cc1 [Compound 98, (2S,4R)-4-(difluoromethoxy)-1-((4-(4-fluorophenoxy)benzoyl)glycyl)-N-((S)-2-hydroxy-1-(1H-pyrrolo[3,2-c]pyridin-2-yl)ethyl)pyrrolidine-2-carboxamide]
< 100	CS(=O)(=O)[C@@H]1C[C@@H](C(=O)N[C@H](CO)c2cc3cnccc3[nH]2)N(C(=O)CNC(=O)c2ccc3c(c2)Oc2ccccc2S3)C1 [Compound 99, (2S,4R)-N-((S)-2-hydroxy-1-(1H-pyrrolo[3,2-c]pyridin-2-yl)ethyl)-4-(methylsulfonyl)-1-((phenoxathiine-3-carbonyl)glycyl) pyrrolidine-2-carboxamide]
100 to 1000	C[C@@H](NC(=O)[C@@H]1C[C@@H](OC(F)F)CN1C(=O)CN1Cc2cc(Br)ccc2C1=O)c1cc2cnccc2[nH]1 [Compound 100, (2S,4R)-N-((R)-1-(1H-pyrrolo[3,2-c]pyridin-2-yl)ethyl)-1-(2-(5-bromo-1-oxoisoindolin-2-yl)acetyl)-4-(difluoromethoxy)pyrrolidine-2-carboxamide]
< 100	C[C@@H](NC(=O)[C@@H]1C[C@@H](OC(F)F)CN1C(=O)CN1Cc2cc(-c3ccc(F)cc3)ccc2C1=O)c1cc2cnccc2[nH]1 [Compound 101, (2S,4R)-N-((R)-1-(1H-pyrrolo[3,2-c]pyridin-2-yl)ethyl)-4-(difluoromethoxy)-1-(2-(5-(4-fluorophenyl)-1-oxoisoindolin-2-yl)acetyl)pyrrolidine-2-carboxamide]
100 to 1000	O=C(NCC(=O)N1C[C@H](OC(F)F)C[C@H]1C(=O)N[C@H](CO)c1cc2cnccc2[nH]1)c1ccc2c(c1)-c1ccccc1C2(F)F [Compound 103, (2S,4R)-1-((9,9-difluoro-9H-fluorene-3-carbonyl)glycyl)-4-(difluoromethoxy)-N-((S)-2-hydroxy-1-(1H-pyrrolo[3,2-c]pyridin-2-yl)ethyl) pyrrolidine-2-carboxamide]
100 to 1000	CS(=O)(=O)[C@@H]1C[C@@H](C(=O)N[C@H](CO)c2cc3cnccc3[nH]2)N(C(=O)CNC(=O)c2ccc3c(c2)-c2ccccc2C3(F)F)C1 [Compound 104, (2S,4R)-1-((9,9-difluoro-9H-fluorene-3-carbonyl)glycyl)-N-((S)-2-hydroxy-1-(1H-pyrrolo[3,2-c]pyridin-2-yl)ethyl)-4-(methylsulfonyl) pyrrolidine-2-carboxamide]
< 100	Cc1ccc(-c2ccc3c(c2)CN(CC(=O)N2C[C@H](OC(F)F)C[C@H]2C(=O)N[C@H](C)c2cc4cnccc4[nH]2)C3=O)cc1 [Compound 105, (2S,4R)-N-((R)-1-(1H-pyrrolo[3,2-c]pyridin-2-yl)ethyl)-4-(difluoromethoxy)-1-(2-(1-oxo-5-(p-tolyl)isoindolin-2-yl)acetyl)pyrrolidine-2-carboxamide]
